Results: PubChem BioAssay (NCI)
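Method: 48-hour compound exposure of cells in 96-well plates, five concentrations, linear interpolation of endpoints. TGI denotes the concentration required for complete inhibition of growth.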

Tests used:
Assay in all cases: NCI tumour cell line growth inhibition, 48 h
A549 NSCLC = system: A549 NSCLC
OVCAR-5 ovarian = system: OVCAR-5 ovarian
IGROV1 ovarian = system: IGROV1 ovarian
COLO 205 colon = system: COLO 205 colon
OVCAR-4 ovarian = system: OVCAR-4 ovarian
MCF7 breast = system: MCF7 breast
CAKI-1 renal = system: CAKI-1 renal
SNB-19 CNS = system: SNB-19 CNS
HCT-15 colon = system: HCT-15 colon
HOP-62 NSCLC = system: HOP-62 NSCLC
RXF 393 renal = system: RXF 393 renal
MDA-N = system: MDA-N
SF-295 CNS = system: SF-295 CNS
SF-539 CNS = system: SF-539 CNS
NCI-H23 lung = system: NCI-H23 lung
UACC-257 melanoma = system: UACC-257 melanoma
SR leukemia = system: SR leukemia
BT-549 breast = system: BT-549 breast
SK-OV-3 ovarian = system: SK-OV-3 ovarian
HT29 colon = system: HT29 colon
RPMI-8226 leukemia = system: RPMI-8226 leukemia
EKVX NSCLC = system: EKVX NSCLC
KM12 colon = system: KM12 colon
MDA-MB-435 = system: MDA-MB-435
NCI/ADR-RES ovarian = system: NCI/ADR-RES ovarian
NCI-H522 lung = system: NCI-H522 lung
SK-MEL-2 melanoma = system: SK-MEL-2 melanoma
PC-3 prostate = system: PC-3 prostate
SK-MEL-28 melanoma = system: SK-MEL-28 melanoma
HCT-116 colon = system: HCT-116 colon
MALME-3M melanoma = system: MALME-3M melanoma
NCI-H226 lung = system: NCI-H226 lung
SN12C renal = system: SN12C renal
K-562 leukemia = system: K-562 leukemia
SW-620 colon = system: SW-620 colon
SK-MEL-5 melanoma = system: SK-MEL-5 melanoma
OVCAR-3 ovarian = system: OVCAR-3 ovarian
M14 melanoma = system: M14 melanoma
HS 578T breast = system: HS 578T breast
UACC-62 melanoma = system: UACC-62 melanoma
ACHN renal = system: ACHN renal
SNB-75 CNS = system: SNB-75 CNS
SF-268 CNS = system: SF-268 CNS
DU-145 prostate = system: DU-145 prostate
OVCAR-8 ovarian = system: OVCAR-8 ovarian
A498 renal = system: A498 renal
U251 CNS = system: U251 CNS
MDA-MB-231 breast = system: MDA-MB-231 breast
T-47D breast = system: T-47D breast
NCI-H460 lung = system: NCI-H460 lung
786-0 renal = system: 786-0 renal
UO-31 renal = system: UO-31 renal
HCC-2998 colon = system: HCC-2998 colon
TK-10 renal = system: TK-10 renal
HL-60(TB) leukemia = system: HL-60(TB) leukemia

Structure (SMILES): COc1ccc2c3c(c4cc(OC)c(OC)cc4c2c1)CN1CCC[C@H]1[C@@H]3O
- TGI (A549 NSCLC): > 55.4 µM
- TGI (OVCAR-5 ovarian): > 28.3 µM
- TGI (IGROV1 ovarian): 0.326 µM
- TGI (COLO 205 colon): 0.304 µM
- TGI (OVCAR-4 ovarian): 31.2 µM
- TGI (MCF7 breast): > 100 µM
- TGI (CAKI-1 renal): 0.234 µM
- TGI (SNB-19 CNS): 2.13 µM
- TGI (HCT-15 colon): 1.19 µM
- TGI (HOP-62 NSCLC): 2.81 µM
- TGI (RXF 393 renal): 7.64 µM
- TGI (MDA-N): 0.706 µM
- TGI (SF-295 CNS): 4.03 µM
- TGI (SF-539 CNS): 0.829 µM
- TGI (NCI-H23 lung): 0.169 µM
- TGI (UACC-257 melanoma): 0.544 µM
- TGI (SR leukemia): 4.87 µM
- TGI (BT-549 breast): 6.76 µM
- TGI (SK-OV-3 ovarian): > 100 µM
- TGI (HT29 colon): 0.373 µM
- TGI (RPMI-8226 leukemia): 5.17 µM
- TGI (EKVX NSCLC): 0.578 µM
- TGI (KM12 colon): 0.341 µM
- TGI (MDA-MB-435): 4.21 µM
- TGI (NCI/ADR-RES ovarian): 26.1 µM
- TGI (NCI-H522 lung): 2.85 µM
- TGI (SK-MEL-2 melanoma): 0.591 µM
- TGI (PC-3 prostate): > 41.9 µM
- TGI (SK-MEL-28 melanoma): 0.667 µM
- TGI (HCT-116 colon): 1.22 µM
- TGI (MALME-3M melanoma): 0.829 µM
- TGI (NCI-H226 lung): 11.5 µM
- TGI (SN12C renal): 0.237 µM
- TGI (K-562 leukemia): 0.653 µM
- TGI (SW-620 colon): > 39.8 µM
- TGI (SK-MEL-5 melanoma): 0.398 µM
- TGI (OVCAR-3 ovarian): > 21.1 µM
- TGI (M14 melanoma): 1.3 µM

Structure (SMILES): CCCCCCCCCCCCCCCC[N+](C)(C)CCl
- TGI (HS 578T breast): 5.26 µM
- TGI (A549 NSCLC): 22.3 µM
- TGI (OVCAR-5 ovarian): 21.6 µM
- TGI (IGROV1 ovarian): 1.31 µM
- TGI (COLO 205 colon): 4.16 µM
- TGI (OVCAR-4 ovarian): 8.44 µM
- TGI (UACC-62 melanoma): 6.46 µM
- TGI (ACHN renal): 8.36 µM
- TGI (MCF7 breast): > 28.9 µM
- TGI (CAKI-1 renal): 8.74 µM
- TGI (SNB-75 CNS): 5.18 µM
- TGI (SNB-19 CNS): 3.81 µM
- TGI (SF-268 CNS): 9.38 µM
- TGI (DU-145 prostate): 17.2 µM
- TGI (HCT-15 colon): 20.9 µM
- TGI (HOP-62 NSCLC): 6.69 µM
- TGI (OVCAR-8 ovarian): 7.43 µM
- TGI (A498 renal): 32.2 µM
- TGI (U251 CNS): 3.04 µM
- TGI (MDA-MB-231 breast): 4.32 µM
- TGI (T-47D breast): 23.6 µM
- TGI (MDA-N): 15.4 µM
- TGI (SF-295 CNS): 6.06 µM
- TGI (NCI-H460 lung): 4.74 µM
- TGI (SF-539 CNS): 8.13 µM
- TGI (NCI-H23 lung): 27.8 µM
- TGI (UACC-257 melanoma): 21.1 µM
- TGI (BT-549 breast): 7.87 µM
- TGI (SK-OV-3 ovarian): 27.7 µM
- TGI (HT29 colon): 3.82 µM
- TGI (RPMI-8226 leukemia): 5.16 µM
- TGI (EKVX NSCLC): 22.8 µM
- TGI (786-0 renal): 3.31 µM
- TGI (MDA-MB-435): > 39.2 µM
- TGI (NCI/ADR-RES ovarian): 49 µM
- TGI (SK-MEL-2 melanoma): 49.8 µM
- TGI (PC-3 prostate): 7.96 µM
- TGI (SK-MEL-28 melanoma): > 50.7 µM
- TGI (UO-31 renal): 27.9 µM
- TGI (HCT-116 colon): 4.98 µM
- TGI (HCC-2998 colon): 3.18 µM
- TGI (MALME-3M melanoma): 7.38 µM
- TGI (TK-10 renal): 6.41 µM
- TGI (NCI-H226 lung): 6.25 µM
- TGI (SN12C renal): 12.8 µM
- TGI (HL-60(TB) leukemia): 3.12 µM
- TGI (SW-620 colon): > 100 µM
- TGI (SK-MEL-5 melanoma): 2.94 µM
- TGI (OVCAR-3 ovarian): 14.6 µM
- TGI (M14 melanoma): 6.38 µM
